In publication PMC4710522, “A Novel Triazolopyridine-Based Spleen Tyrosine Kinase Inhibitor That Arrests Joint Inflammation” (PLoS ONE, 2016):
“And” between values parts separate entries of the source, which are not always exact repeats. Equal values may be shown once.

Experiments:
BRAF V599E = biological target: T1, BRAF V599E (Homo sapiens, UniProt P15056, V600E); test: SelectScreen kinase assay; type: biochemical; details: 100 µM ATP, read-out: % control
T1 construct: purchased Life Technologies (Invitrogen) SelectScreen, Z'-LYTE / Adapta
Procedure: (§1) Syk kinase mode of inhibition studies, including parameters described in Fig 1, were conducted on the LC3000 platform by Caliper Life Sciences (Hopkinton, MA) according to standard protocols developed by the supplier. […] Non-kinase enzyme assays and GPCR, ion channel, and transporter binding assays were run by CEREP (France). Non-GLP manual patch clamp hERG assays were run by ChanTest (Cleveland, Ohio). Vivid® Assay kits (Life Technologies) were used to measure the cytochrome P450 inhibition of the compound against CYP3A, CYP2C9, CYP2C19, CYP2D6, and CYP1A2, as described.
(§2) Kinase activity was measured using either the Z’-Lyte® or the Adapta® protocols as part of the SelectScreen™ profiling service offered at Life Technologies (Grand Island, NY). For the single point measurements (Part A), CC-509 was kept constant at 3 µM while ATP concentrations [ATP] used were at the KM for ATP (KM ATP) for that specific enyzme, at 10 or 100 µM ATP (10 ATP or 100 ATP, respectively), as indicated. Values expressed as percent control (% control) relative to DMSO-only wells (uninhibited, 100%).
(§3) Kinase activity was measured using either the Z’-Lyte® or the Adapta® protocols as part of the SelectScreen™ profiling service offered at Life Technologies (Grand Island, NY). […] Values expressed as percent control (% control) relative to DMSO-only wells (uninhibited, 100%).

CDK9_h = biological target: T2, CDK9_h (Homo sapiens, UniProt P50750); test: SelectScreen kinase assay; type: biochemical; details: KM ATP, read-out: % control
T2 construct: purchased Life Technologies (Invitrogen) SelectScreen, Z'-LYTE / Adapta
Procedure: as §1, §2, §3

DYR1A_h = biological target: T3, DYR1A_h (Homo sapiens, UniProt Q13627); test: SelectScreen kinase assay; type: biochemical; details: KM ATP, read-out: % control
T3 construct: purchased Life Technologies (Invitrogen) SelectScreen, Z'-LYTE / Adapta
Procedure: as §1, §2, §3

EGFR_T790M_L858R_h = biological target: T4, EGFR_T790M_L858R_h (Homo sapiens, UniProt P00533, L858R/T790M); test: SelectScreen kinase assay; type: biochemical; details: KM ATP, read-out: % control
T4 construct: purchased Life Technologies (Invitrogen) SelectScreen, Z'-LYTE / Adapta
Procedure: as §1, §2, §3

EphB4_h = biological target: T5, EphB4_h (Homo sapiens, UniProt P54760); test: SelectScreen kinase assay; type: biochemical; details: KM ATP, read-out: % control
T5 construct: purchased Life Technologies (Invitrogen) SelectScreen, Z'-LYTE / Adapta
Procedure: as §1, §2, §3

FGFR2_h = biological target: T6, FGFR2_h (Homo sapiens, UniProt P21802); test: SelectScreen kinase assay; type: biochemical; details: KM ATP, read-out: % control
T6 construct: purchased Life Technologies (Invitrogen) SelectScreen, Z'-LYTE / Adapta
Procedure: as §1, §2, §3

Fgr_h = biological target: T7, Fgr_h (Homo sapiens, UniProt P09769); test: SelectScreen kinase assay; type: biochemical; details: KM ATP, read-out: % control
T7 construct: purchased Life Technologies (Invitrogen) SelectScreen, Z'-LYTE / Adapta
Procedure: as §1, §2, §3

HIPK4_h = biological target: T8, HIPK4_h (Homo sapiens, UniProt Q8NE63); test: SelectScreen kinase assay; type: biochemical; details: KM ATP, read-out: % control
T8 construct: purchased Life Technologies (Invitrogen) SelectScreen, Z'-LYTE / Adapta
Procedure: as §1, §2, §3

IKK-beta_h = biological target: T9, IKK-beta_h (Homo sapiens, UniProt O14920); test: SelectScreen kinase assay; type: biochemical; details: KM ATP, read-out: % control
T9 construct: purchased Life Technologies (Invitrogen) SelectScreen, Z'-LYTE / Adapta
Procedure: as §1, §2, §3

IRAK4_h = biological target: T10, IRAK4_h (Homo sapiens, UniProt Q9NWZ3); test: SelectScreen kinase assay; type: biochemical; details: KM ATP, read-out: % control
T10 construct: purchased Life Technologies (Invitrogen) SelectScreen, Z'-LYTE / Adapta
Procedure: as §1, §2, §3

JAK3_h = JAK3_h (Homo sapiens, UniProt P52333); test: SelectScreen kinase assay; type: biochemical
Chain of JAK3_h (P52333 whole entry): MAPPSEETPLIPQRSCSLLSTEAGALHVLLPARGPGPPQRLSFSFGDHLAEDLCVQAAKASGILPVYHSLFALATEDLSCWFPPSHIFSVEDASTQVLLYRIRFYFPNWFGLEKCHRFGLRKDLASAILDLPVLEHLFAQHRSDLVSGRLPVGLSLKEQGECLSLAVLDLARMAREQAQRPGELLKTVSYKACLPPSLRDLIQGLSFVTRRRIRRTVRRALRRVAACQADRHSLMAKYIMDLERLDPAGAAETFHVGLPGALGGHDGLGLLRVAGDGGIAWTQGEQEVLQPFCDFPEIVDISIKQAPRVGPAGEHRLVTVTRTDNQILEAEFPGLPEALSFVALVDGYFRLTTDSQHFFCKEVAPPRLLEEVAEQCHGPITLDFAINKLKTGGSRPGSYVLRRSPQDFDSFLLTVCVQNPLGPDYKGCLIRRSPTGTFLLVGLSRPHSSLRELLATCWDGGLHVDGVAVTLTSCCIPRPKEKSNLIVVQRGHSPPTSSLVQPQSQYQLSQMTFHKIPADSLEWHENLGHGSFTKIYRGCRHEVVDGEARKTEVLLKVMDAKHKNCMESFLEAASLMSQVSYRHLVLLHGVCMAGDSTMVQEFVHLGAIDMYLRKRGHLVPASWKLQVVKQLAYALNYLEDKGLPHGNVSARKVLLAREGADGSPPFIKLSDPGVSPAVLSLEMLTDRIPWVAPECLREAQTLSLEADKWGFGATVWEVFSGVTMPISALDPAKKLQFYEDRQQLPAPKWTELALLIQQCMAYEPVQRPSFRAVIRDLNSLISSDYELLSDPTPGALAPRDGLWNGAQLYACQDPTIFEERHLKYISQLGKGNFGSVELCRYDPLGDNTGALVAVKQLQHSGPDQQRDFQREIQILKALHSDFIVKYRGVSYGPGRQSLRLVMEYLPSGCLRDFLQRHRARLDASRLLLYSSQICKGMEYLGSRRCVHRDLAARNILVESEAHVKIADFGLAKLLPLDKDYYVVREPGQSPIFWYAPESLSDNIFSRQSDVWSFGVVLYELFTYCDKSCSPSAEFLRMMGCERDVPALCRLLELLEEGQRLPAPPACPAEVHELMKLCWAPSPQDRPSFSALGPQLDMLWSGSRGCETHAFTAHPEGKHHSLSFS
Procedure: as §1, §2, §3

Lck_h = biological target: T11, Lck_h (Homo sapiens, UniProt P06239); test: SelectScreen kinase assay; type: biochemical; details: KM ATP, read-out: % control
T11 construct: purchased Life Technologies (Invitrogen) SelectScreen, Z'-LYTE / Adapta
Procedure: as §1, §2, §3

Ltk_h = biological target: T12, Ltk_h (Homo sapiens, UniProt P29376); test: SelectScreen kinase assay; type: biochemical; details: KM ATP, read-out: % control
T12 construct: purchased Life Technologies (Invitrogen) SelectScreen, Z'-LYTE / Adapta
Procedure: as §1, §2, §3

MSSK1_h = biological target: T13, MSSK1_h (Homo sapiens, UniProt Q9UPE1); test: SelectScreen kinase assay; type: biochemical; details: KM ATP, read-out: % control
T13 construct: purchased Life Technologies (Invitrogen) SelectScreen, Z'-LYTE / Adapta
Procedure: as §1, §2, §3

Met_M1250T_h = biological target: T14, Met_M1250T_h (Homo sapiens, UniProt P08581, M1250T); test: SelectScreen kinase assay; type: biochemical; details: KM ATP, read-out: % control
T14 construct: purchased Life Technologies (Invitrogen) SelectScreen, Z'-LYTE / Adapta
T14 sequence (P08581 25-1390 M1250T): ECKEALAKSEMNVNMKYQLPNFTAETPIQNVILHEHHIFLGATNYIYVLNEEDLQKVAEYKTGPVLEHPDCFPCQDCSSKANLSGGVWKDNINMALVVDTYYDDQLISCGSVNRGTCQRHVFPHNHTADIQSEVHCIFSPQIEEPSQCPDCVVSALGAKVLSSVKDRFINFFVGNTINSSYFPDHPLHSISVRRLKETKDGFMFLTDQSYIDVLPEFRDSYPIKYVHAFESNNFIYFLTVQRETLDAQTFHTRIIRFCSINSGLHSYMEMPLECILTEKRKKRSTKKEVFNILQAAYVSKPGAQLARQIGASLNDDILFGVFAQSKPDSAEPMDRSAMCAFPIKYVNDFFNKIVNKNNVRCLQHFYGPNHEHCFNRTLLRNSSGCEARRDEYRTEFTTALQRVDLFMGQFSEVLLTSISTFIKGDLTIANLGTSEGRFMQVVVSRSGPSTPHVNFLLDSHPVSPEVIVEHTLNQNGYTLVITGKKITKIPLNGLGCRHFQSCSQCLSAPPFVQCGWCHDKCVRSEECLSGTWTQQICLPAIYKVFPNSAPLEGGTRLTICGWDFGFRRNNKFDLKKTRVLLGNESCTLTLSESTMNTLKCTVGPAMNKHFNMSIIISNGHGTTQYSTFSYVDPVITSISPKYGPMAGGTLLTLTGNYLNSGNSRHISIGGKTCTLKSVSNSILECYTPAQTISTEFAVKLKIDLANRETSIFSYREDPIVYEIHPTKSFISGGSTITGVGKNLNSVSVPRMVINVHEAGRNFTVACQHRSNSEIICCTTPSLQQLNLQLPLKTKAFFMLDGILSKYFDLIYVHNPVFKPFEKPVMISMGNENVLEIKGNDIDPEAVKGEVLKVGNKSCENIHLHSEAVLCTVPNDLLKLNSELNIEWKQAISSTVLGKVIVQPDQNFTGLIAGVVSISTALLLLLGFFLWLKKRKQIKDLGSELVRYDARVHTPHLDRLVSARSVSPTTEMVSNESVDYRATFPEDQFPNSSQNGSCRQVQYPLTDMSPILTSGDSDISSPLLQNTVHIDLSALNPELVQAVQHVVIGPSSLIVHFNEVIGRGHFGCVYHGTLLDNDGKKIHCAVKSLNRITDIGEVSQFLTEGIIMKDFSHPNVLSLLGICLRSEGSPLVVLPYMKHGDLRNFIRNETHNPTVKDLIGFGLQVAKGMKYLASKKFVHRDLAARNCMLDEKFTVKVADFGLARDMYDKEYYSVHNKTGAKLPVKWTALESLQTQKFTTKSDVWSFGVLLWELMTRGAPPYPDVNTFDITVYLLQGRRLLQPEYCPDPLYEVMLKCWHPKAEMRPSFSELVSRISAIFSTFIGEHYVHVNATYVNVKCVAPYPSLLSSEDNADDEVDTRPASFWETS
Procedure: as §1, §2, §3

NEK4_h = biological target: T15, NEK4_h (Homo sapiens, UniProt P51957); test: SelectScreen kinase assay; type: biochemical; details: KM ATP, read-out: % control
T15 construct: purchased Life Technologies (Invitrogen) SelectScreen, Z'-LYTE / Adapta
Procedure: as §1, §2, §3

PKB-alpha_h = biological target: T16, PKB-alpha_h (Homo sapiens, UniProt P31749); test: SelectScreen kinase assay; type: biochemical; details: KM ATP, read-out: % control
T16 construct: purchased Life Technologies (Invitrogen) SelectScreen, Z'-LYTE / Adapta
Procedure: as §1, §2, §3

PKC-epsilon_h = biological target: T17, PKC-epsilon_h (Homo sapiens, UniProt Q02156); test: SelectScreen kinase assay; type: biochemical; details: KM ATP, read-out: % control
T17 construct: purchased Life Technologies (Invitrogen) SelectScreen, Z'-LYTE / Adapta
Procedure: as §1, §2, §3

Rsk3_h = biological target: T18, Rsk3_h (Homo sapiens, UniProt Q15349); test: SelectScreen kinase assay; type: biochemical; details: KM ATP, read-out: % control
T18 construct: purchased Life Technologies (Invitrogen) SelectScreen, Z'-LYTE / Adapta
Procedure: as §1, §2, §3

Rsk4_h = biological target: T19, Rsk4_h (Homo sapiens, UniProt Q9UK32); test: SelectScreen kinase assay; type: biochemical; details: KM ATP, read-out: % control
T19 construct: purchased Life Technologies (Invitrogen) SelectScreen, Z'-LYTE / Adapta
T19 sequence (Q9UK32 whole entry): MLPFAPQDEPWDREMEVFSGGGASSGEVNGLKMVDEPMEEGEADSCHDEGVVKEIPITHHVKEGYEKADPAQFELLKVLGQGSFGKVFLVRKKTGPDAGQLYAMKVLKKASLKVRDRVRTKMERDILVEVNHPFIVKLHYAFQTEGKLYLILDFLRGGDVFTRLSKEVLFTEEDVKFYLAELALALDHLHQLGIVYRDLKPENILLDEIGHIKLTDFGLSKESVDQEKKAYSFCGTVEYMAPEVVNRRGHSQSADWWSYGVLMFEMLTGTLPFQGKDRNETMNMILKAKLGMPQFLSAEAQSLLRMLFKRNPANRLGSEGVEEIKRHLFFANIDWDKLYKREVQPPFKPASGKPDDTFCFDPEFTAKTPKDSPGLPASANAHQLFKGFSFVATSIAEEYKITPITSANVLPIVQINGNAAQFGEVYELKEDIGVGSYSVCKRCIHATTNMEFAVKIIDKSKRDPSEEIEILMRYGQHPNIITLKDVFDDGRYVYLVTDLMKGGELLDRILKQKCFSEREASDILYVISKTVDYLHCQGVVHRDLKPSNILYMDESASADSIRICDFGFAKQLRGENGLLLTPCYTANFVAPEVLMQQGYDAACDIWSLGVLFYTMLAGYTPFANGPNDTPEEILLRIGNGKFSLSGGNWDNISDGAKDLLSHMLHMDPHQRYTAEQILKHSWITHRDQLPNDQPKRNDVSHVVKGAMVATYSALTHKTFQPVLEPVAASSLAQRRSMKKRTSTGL
Procedure: as §1, §2, §3

TSSK1_h = biological target: T20, TSSK1_h (Homo sapiens, UniProt Q9BXA7); test: SelectScreen kinase assay; type: biochemical; details: KM ATP, read-out: % control
T20 construct: purchased Life Technologies (Invitrogen) SelectScreen, Z'-LYTE / Adapta
T20 sequence (Q9BXA7 whole entry): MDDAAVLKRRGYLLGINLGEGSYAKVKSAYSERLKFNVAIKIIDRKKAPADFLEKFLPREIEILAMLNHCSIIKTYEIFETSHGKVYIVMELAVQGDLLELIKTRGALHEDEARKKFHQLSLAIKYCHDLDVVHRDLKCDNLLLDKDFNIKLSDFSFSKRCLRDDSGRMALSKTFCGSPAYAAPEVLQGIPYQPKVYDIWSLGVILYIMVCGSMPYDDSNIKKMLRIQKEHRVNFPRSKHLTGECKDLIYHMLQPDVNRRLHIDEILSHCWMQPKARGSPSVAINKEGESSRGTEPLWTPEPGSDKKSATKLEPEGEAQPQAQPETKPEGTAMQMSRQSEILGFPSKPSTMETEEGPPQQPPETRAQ
Procedure: as §1, §2, §3

c-RAF_h = biological target: T21, c-RAF_h (Homo sapiens, UniProt P04049); test: SelectScreen kinase assay; type: biochemical; details: 100 µM ATP, read-out: % control
T21 construct: purchased Life Technologies (Invitrogen) SelectScreen, Z'-LYTE / Adapta
Procedure: as §1, §2, §3

Flt4_h = Flt4_h (Homo sapiens, UniProt P35916); test: SelectScreen kinase assay; type: biochemical
Chain of Flt4_h (P35916 25-1363): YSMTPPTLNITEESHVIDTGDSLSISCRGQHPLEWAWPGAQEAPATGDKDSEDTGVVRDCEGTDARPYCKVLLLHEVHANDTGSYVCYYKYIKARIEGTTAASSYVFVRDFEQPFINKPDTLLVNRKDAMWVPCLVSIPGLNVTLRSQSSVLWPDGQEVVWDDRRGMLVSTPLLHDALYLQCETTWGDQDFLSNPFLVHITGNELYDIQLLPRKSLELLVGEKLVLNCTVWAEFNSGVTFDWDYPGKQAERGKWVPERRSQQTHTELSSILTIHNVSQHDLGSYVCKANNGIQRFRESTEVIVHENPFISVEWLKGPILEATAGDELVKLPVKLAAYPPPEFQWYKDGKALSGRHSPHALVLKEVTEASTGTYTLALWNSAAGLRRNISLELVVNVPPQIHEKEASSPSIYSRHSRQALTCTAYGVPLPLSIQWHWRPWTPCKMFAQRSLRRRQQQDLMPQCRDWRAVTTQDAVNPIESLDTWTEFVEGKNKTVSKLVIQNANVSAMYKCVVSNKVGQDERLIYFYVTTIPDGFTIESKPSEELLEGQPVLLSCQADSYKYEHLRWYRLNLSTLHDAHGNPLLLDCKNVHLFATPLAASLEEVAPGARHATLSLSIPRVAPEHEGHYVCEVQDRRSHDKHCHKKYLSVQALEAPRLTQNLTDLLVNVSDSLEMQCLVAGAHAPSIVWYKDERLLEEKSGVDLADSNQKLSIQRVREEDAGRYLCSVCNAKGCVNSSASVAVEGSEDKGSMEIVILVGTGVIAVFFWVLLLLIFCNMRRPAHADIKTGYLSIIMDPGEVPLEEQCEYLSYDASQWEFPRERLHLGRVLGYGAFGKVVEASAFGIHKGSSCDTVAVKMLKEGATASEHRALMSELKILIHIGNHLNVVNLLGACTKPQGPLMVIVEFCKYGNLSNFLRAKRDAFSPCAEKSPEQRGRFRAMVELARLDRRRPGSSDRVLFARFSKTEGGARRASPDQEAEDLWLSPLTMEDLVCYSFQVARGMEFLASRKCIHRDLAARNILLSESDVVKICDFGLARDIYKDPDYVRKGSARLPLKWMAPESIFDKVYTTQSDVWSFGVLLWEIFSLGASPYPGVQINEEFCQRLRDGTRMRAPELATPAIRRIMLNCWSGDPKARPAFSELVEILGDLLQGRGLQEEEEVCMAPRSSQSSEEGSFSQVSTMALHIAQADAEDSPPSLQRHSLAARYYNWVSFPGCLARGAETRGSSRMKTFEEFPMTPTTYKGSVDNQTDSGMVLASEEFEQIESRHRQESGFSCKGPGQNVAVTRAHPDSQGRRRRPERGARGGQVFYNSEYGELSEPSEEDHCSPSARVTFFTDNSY

[1] = system: Tel-Syk expressing BaF3 cells; test: Tel-Syk BaF3 viability assay (growth factor-independent growth); type: cell-based, murine; details: Mus musculus; Tel-Syk BaF3, absence of IL-3
Procedure: HEK293 T-REx™ (Life Technologies, Grand Island, NY) stably transfected with human TEL-Syk (cloned as described prior section DNA constructs) were plated on black poly-D-lysine coated 96-well plates (BD Biosciences, San Diego, CA) in culture media containing tetracycline-free fetal bovine serum (Clontech, MountainView, CA) for 16 hours in a tissue culture incubator. Tel-Syk expression was induced for 6 hours in fresh growth media containing 1 μg/ml tetracycline (Sigma Chemicals, St. Louis, MO). Plates were preincubated with CC-509 for 90 minutes, fixed immediately with 4% formaldehyde in 1X PBS for 20 min at room temperature, and washed/permeabilized 5-times with PBS containing 0.1% Triton X-100. Plates were blocked with Odyssey Blocking Buffer for 90 minutes at room temperature and incubated overnight at 4°C on a rotating platform with rabbit phospho-Syk (1:1000) and mouse V5 (1:2500) primary antibodies diluted in Odyssey Blocking Buffer. […] Viability of BaF/3 cells expressing Tel-Syk grown in the absence of murine IL-3 was measured using Cell-Titer Glo reagent (Promega, Madison, WI), as described by supplier.

[2] = 3 µM, KM ATP, read-out: % control
[3] = 10-point dose-response, commercial vendor

For `c1cc(CC2CCOCC2)n2nc(Nc3ccc4c(NC5CCOCC5)n[nH]c4c3)nc2c1` [CC-509, [3-(2H-3,4,5,6-tetrahydropyran-4-ylamino)(1H-indazol-6-yl)][5-(2H-3,4,5,6-tetrahydropyran-4-ylmethyl)(2H-1,2,4-triazolo[1,5-a]pyridin-2-yl)]amine], the remaining activity at 3 µM (BRAF V599E) was 88%, the remaining activity at 3 µM (CDK9_h) was 31% and the remaining activity at 3 µM (DYR1A_h) was 99%. For the same compound, the remaining activity at 3 µM (EGFR_T790M_L858R_h) was 52%, the remaining activity at 3 µM (EphB4_h) was 87% and the remaining activity at 3 µM (FGFR2_h) was 46%. It also gave a remaining activity at 3 µM (Fgr_h) of 21%, a remaining activity at 3 µM (HIPK4_h) of 100% and a remaining activity at 3 µM (IKK-beta_h) of 99%. The remaining activity at 3 µM (IRAK4_h) was 94%, the remaining activity at 3 µM (JAK3_h; [2]) was 5% and the IC50 (JAK3_h; [3]) was 20 nM and 18 nM. The remaining activity at 3 µM (Lck_h) was 39%, the remaining activity at 3 µM (Ltk_h) was 71% and the remaining activity at 3 µM (MSSK1_h) was 98%. It also gave a remaining activity at 3 µM (Met_M1250T_h) of 74%, a remaining activity at 3 µM (NEK4_h) of 78% and a remaining activity at 3 µM (PKB-alpha_h) of 100%. The remaining activity at 3 µM (PKC-epsilon_h) was 100%, the remaining activity at 3 µM (Rsk3_h) was 33% and the remaining activity at 3 µM (Rsk4_h) was 32%. For the same compound, the remaining activity at 3 µM (TSSK1_h) was 62%, the remaining activity at 3 µM (c-RAF_h) was 70% and the remaining activity at 3 µM (Flt4_h; [2]) was 1%. The IC50 (Flt4_h; [3]) was 50 nM and 53.9 nM and the IC50 [1] was 1610 ± 410 nM.
